Measurements as given in patent US9844549B2, “2-aminothiazole derivative or salt thereof” (ASTELLAS PHARMA INC., priority 2014, dated 2017).
Where a name gives a salt, the structure may show the parent alone.

Test system: anesthetized rats
Test: Effect on pelvic nerve stimulation-induced elevation of intravesical pressure in anesthetized rats
Format: in vivo
Settings: Rattus norvegicus; 3 mg/kg intravenous; maximum effect within one hour; AUC, pre-treatment = 100%; SD female rats; read-out: Increase rate of intravesical pressure (% of pre)
Description: Test Example 3: Effect on Pelvic Nerve Stimulation-Induced Elevation of Intravesical Pressure in Anesthetized Rats
The effect of the Example compounds of the present invention in the pelvic nerve electrical stimulation-induced elevation of intravesical pressure using rats as an action of nerve stimulation-dependent bladder contraction in vivo was measured by the following method. That is, SD female rats (Japan SLC, Inc.) were used and its lower abdomen was dissected at the midline under pentobarbital anesthesia (50 mg/kg ip). After ligating and cutting the ureter on both sides, a cannula (PE-50) for measuring the intravesical pressure was inserted into the bladder from the external urethral opening and fixed by a clip. After injecting about 200 μL of saline through the cannula that had been inserted into the bladder, the other side was connected to a pressure transducer to measure the intravesical pressure. Under a stereoscopic microscope observation, the pelvic nerve in the vicinity of the bladder was peeled and an electrode for nerve stimulation (unique Medical) was placed. The abdominal cavity was filled with mineral oil (MP BIOMEDICALS). After placing in a post-operative stabilization period, the pelvic nerve was subjected to electrical stimulation (stimulation voltage: 10 V, stimulation frequency: 8 Hz, pulse width: 0.3 msec, and stimulation time: 10 seconds) to elicit the elevation of intravesical pressure, using an electrical stimulator (Nihon Kohden). By repeating the electrical stimulation at an interval of 2 minutes while adjusting the voltage, the voltage was adjusted to elicit about 50% to 70% elevation of intravesical pressure elicited at 10 V. Thereafter, by repeating the electrical stimulation at an interval of 10 minutes, the increase in the intravesical pressure by electrical stimulation was stabilized three times or more, and the test substance (an administration amount of 3 mg/kg) was then administered from the catheter detained in the vein at a volume of 1 mL/kg, thus measuring an effect of the elevation of the intravesical pressure of the test substance for 1 hour. The test substance was dissolved in water supplemented with 10% DMSO and 10% Cremophor.
The response was applied to a personal computer through a PowerLab (registered trademark) and analyzed by LabChart (registered trademark). The AUC of each elevation of the intravesical pressure was calculated, the intravesical pressure elevation rate (% of pre) after the treatment with the test substance was calculated by taking an average value of the values measured three times before the treatment with the test substance as 100%, and the maximum effect during a period within one hour after administration of the compound was considered as the effect of the test substance.

Q: How did the response vs control in vivo at 3 mg/kg turn out when C[C@@H]1CCCN1Cc1sc(Nc2nccc(N3CCN(CCC(=O)O)CC3)c2F)nc1-c1ccc(Cl)c(C(F)(F)F)c1 [Example 2, sodium 3-(4-{2-[(4-[4-chloro-3-(trifluoromethyl)phenyl]-5-{[(2R)-2-methylpyrrolidin-1-yl]methyl}-1,3-thiazol-2-yl)amino]-3-fluoropyridin-4-yl}piperazin-1-yl)propanoate] was run?
A: 143%

Q: For C[C@@H]1CCCN1Cc1sc(Nc2nccc(N3CCN(CCC(=O)O)CC3)c2F)nc1-c1cc(F)cc(C(F)(F)F)c1 [Example 5, 3-(4-{3-fluoro-2-[(4-[3-fluoro-5-(trifluoromethyl)phenyl]-5-{[(2R)-2-methylpyrrolidin-1-yl]methyl}-1,3-thiazol-2-yl)amino]pyridin-4-yl}piperazin-1-yl)propanoic acid trihydrochloride], which response vs control in vivo at 3 mg/kg is on record?
A: 146%

Q: How did the response vs control in vivo at 3 mg/kg turn out when Cc1nc(Nc2nc(-c3cc(F)cc(C(F)(F)F)c3)c(CN3CCC[C@H]3C)s2)cc(N2CCN(CCC(=O)O)[C@@H](C)C2)n1 [Example 15] was run?
A: 130%

Q: Which response vs control in vivo at 3 mg/kg does the source give for Cc1nc(Nc2nc(-c3cc(F)cc(C(F)(F)F)c3)c(CN3CCC[C@H]3C)s2)cc(N2CCN(CC(=O)O)CC2)n1 [Example 16] here?
A: 111%

Q: Which response vs control in vivo at 3 mg/kg does the source give for C[C@@H]1CN(c2cc(Nc3nc(-c4cc(F)cc(C(F)(F)F)c4)c(CN4CCC[C@H]4C)s3)ncn2)CCN1CCC(=O)O [Example 20] here?
A: 118%

Q: For Cc1nc(Nc2nc(-c3cc(F)cc(C(F)(F)F)c3)c(CN3CCC[C@H]3C)s2)cc(N2CCN(CCC(=O)O)[C@H](C)C2)n1 [Example 21], which response vs control in vivo at 3 mg/kg is on record?
A: 116%

Q: How did the response vs control in vivo at 3 mg/kg turn out when COC1CCN(c2sc(Nc3cc(N4CCN(CCC(=O)O)CC4)nc(C)n3)nc2-c2cc(F)cc(C(F)(F)F)c2)CC1 [Example 27] was run?
A: 123%

Q: With CN(Cc1sc(Nc2ncnc(N3CCN(CCC(=O)O)CC3)c2F)nc1-c1cc(F)cc(C(F)(F)F)c1)CC1CC1 [Example 29] as the molecule, how does the response vs control in vivo at 3 mg/kg read?
A: 145%

Q: For Cc1nc(Nc2nc(-c3cc(F)cc(C(F)(F)F)c3)c(CN3CCC[C@H]3C)s2)cc(N2CCC(OCC(=O)O)CC2)n1 [Example 30], which response vs control in vivo at 3 mg/kg is on record?
A: 124%

Q: C[C@@H]1CCCN1Cc1sc(Nc2ncnc(N3CCN(CCC(=O)O)[C@@H](C)C3)c2F)nc1-c1cc(F)cc(C(F)(F)F)c1 [Example 31] was tested. Which response vs control in vivo at 3 mg/kg did it give?
A: 138%

Q: With CO[C@H]1CCCN(c2sc(Nc3ncnc(N4CCN(CCC(=O)O)CC4)c3F)nc2-c2ccc(Cl)c(C(F)(F)F)c2)C1 [Example 32] as the molecule, how does the response vs control in vivo at 3 mg/kg read?
A: 232%

Q: For C[C@@H]1CCCN1Cc1sc(Nc2ncnc(N3CC[C@H](N(C)CCC(=O)O)C3)c2F)nc1-c1cc(F)cc(C(F)(F)F)c1 [Example 34], which response vs control in vivo at 3 mg/kg is on record?
A: 159%

Q: Which response vs control in vivo at 3 mg/kg does the source give for C[C@@H]1CCCN1Cc1sc(Nc2ncnc(N3CCN(CCC(=O)O)[C@@H](C)C3)c2F)nc1-c1ccc(Cl)c(C(F)(F)F)c1 [Example 35] here?
A: 154%

Q: How did the response vs control in vivo at 3 mg/kg turn out when C[C@@H]1CC[C@@H](C)N1Cc1sc(Nc2ncnc(N3CCN(CCC(=O)O)CC3)c2F)nc1-c1ccc(Cl)c(C(F)(F)F)c1 [Example 36] was run?
A: 191%

Q: Which response vs control in vivo at 3 mg/kg does the source give for CC[C@@H]1CCCN1Cc1sc(Nc2nc(C)nc(N3CCN(CCC(=O)O)CC3)c2F)nc1-c1cc(F)cc(C(F)(F)F)c1 [Example 38] here?
A: 142%

Q: With COC1(C(=O)O)CCN(c2ncnc(Nc3nc(-c4cc(F)cc(C(F)(F)F)c4)c(CN4CCC[C@H]4C)s3)c2F)CC1 [Example 39] as the molecule, how does the response vs control in vivo at 3 mg/kg read?
A: 123%

Q: C[C@@H]1CC[C@@H](C)N1Cc1sc(Nc2ncnc(N3CCN(CCC(=O)O)CC3)c2F)nc1-c1cc(Cl)cc(C(F)(F)F)c1 [Example 40] was tested. Which response vs control in vivo at 3 mg/kg did it give?
A: 212%

Q: With C[C@@H]1CCCCN1Cc1sc(Nc2ncnc(N3CCN(CCC(=O)O)CC3)c2F)nc1-c1cc(Cl)cc(C(F)(F)F)c1 [Example 43] as the molecule, how does the response vs control in vivo at 3 mg/kg read?
A: 177%

Q: For C[C@@H]1CCCN1Cc1sc(Nc2ncnc(N3CCN(CCC(=O)O)C(CF)C3)c2F)nc1-c1cc(F)cc(C(F)(F)F)c1 (stereo partly shown) [Example 45], which response vs control in vivo at 3 mg/kg is on record?
A: 182%

Q: C[C@@H]1CCCN1Cc1sc(Nc2ncnc(N3CCN(CCC(=O)O)CC3)c2F)nc1-c1cc(Cl)cc(OC(F)(F)F)c1 [Example 51] was tested. Which response vs control in vivo at 3 mg/kg did it give?
A: 129%

Q: With C[C@@H]1CCCN1Cc1sc(Nc2ncnc(N3CC[C@H](N(C)CCC(=O)O)C3)c2F)nc1-c1ccc(Cl)c(C(F)(F)F)c1 [Example 53] as the molecule, how does the response vs control in vivo at 3 mg/kg read?
A: 145%

Q: How did the response vs control in vivo at 3 mg/kg turn out when COC1(C(=O)O)CCN(c2ncnc(Nc3nc(-c4cc(F)cc(C(F)(F)F)c4)c(CN4[C@H](C)CC[C@H]4C)s3)c2F)CC1 [Example 54] was run?
A: 150%

Q: COC[C@H]1CN(c2ncnc(Nc3nc(-c4ccc(Cl)c(C(F)(F)F)c4)c(CN4CCC[C@H]4C)s3)c2F)CCN1CCC(=O)O [Example 55] was tested. Which response vs control in vivo at 3 mg/kg did it give?
A: 189%

Q: With C[C@@H]1CCCN1Cc1sc(Nc2ncnc(N3CCN(CCC(=O)O)[C@H](CF)C3)c2F)nc1-c1cc(F)cc(C(F)(F)F)c1 [Example 58] as the molecule, how does the response vs control in vivo at 3 mg/kg read?
A: 175%

Q: For C[C@@H]1CCCN1Cc1sc(Nc2ncnc(N3CCN(CCC(=O)O)[C@H](CF)C3)c2F)nc1-c1ccc(Cl)c(C(F)(F)F)c1 [Example 59], which response vs control in vivo at 3 mg/kg is on record?
A: 225%

Q: With CC[C@@H]1CCCN1Cc1sc(Nc2ncnc(N3CCN(CCC(=O)O)CC3)c2F)nc1-c1cc(Cl)cc(C(F)(F)F)c1 [Example 63] as the molecule, how does the response vs control in vivo at 3 mg/kg read?
A: 198%

Q: How did the response vs control in vivo at 3 mg/kg turn out when C[C@@H]1CC[C@@H](C)N1Cc1sc(Nc2ncnc(N3CC[C@H](N(C)CCC(=O)O)C3)c2F)nc1-c1cc(Cl)cc(C(F)(F)F)c1 [Example 65] was run?
A: 174%

Q: For C[C@@H]1CCCN1Cc1sc(Nc2ncnc(N3CCC(OCC(=O)O)CC3)c2F)nc1-c1cc(Cl)cc(C(F)(F)F)c1 [Example 67], which response vs control in vivo at 3 mg/kg is on record?
A: 169%

Q: For C[C@@H]1CC[C@@H](C)N1Cc1sc(Nc2ncnc(N3CCC(OCC(=O)O)CC3)c2F)nc1-c1cc(Cl)cc(C(F)(F)F)c1 [Example 68], which response vs control in vivo at 3 mg/kg is on record?
A: 172%

Q: With CC[C@@H]1CCCN1Cc1sc(Nc2ncnc(N3CC[C@H](N(C)CCC(=O)O)C3)c2F)nc1-c1cc(Cl)cc(C(F)(F)F)c1 [Example 69] as the molecule, how does the response vs control in vivo at 3 mg/kg read?
A: 150%

Q: How did the response vs control in vivo at 3 mg/kg turn out when CC[C@@H]1CCCN1Cc1sc(Nc2ncnc(N3CCN(CCC(=O)O)[C@H](COC)C3)c2F)nc1-c1cc(F)cc(C(F)(F)F)c1 [Example 70] was run?
A: 151%

Q: Which response vs control in vivo at 3 mg/kg does the source give for CC[C@@H]1CCCN1Cc1sc(Nc2ncnc(N3CCN(CCC(=O)O)[C@H](COC)C3)c2F)nc1-c1cc(Cl)cc(C(F)(F)F)c1 [Example 71] here?
A: 197%

Q: C[C@@H]1CCCN1Cc1sc(Nc2ncnc(N3CCN(CC(=O)O)CC3)c2F)nc1-c1cc(Cl)cc(C(F)(F)F)c1 [Example 77] was tested. Which response vs control in vivo at 3 mg/kg did it give?
A: 140%

Q: With C[C@@H]1CCCN1Cc1sc(Nc2ncnc(N3CCN(CCC(=O)O)[C@@H](CO)C3)c2F)nc1-c1cc(F)cc(C(F)(F)F)c1 [Example 86] as the molecule, how does the response vs control in vivo at 3 mg/kg read?
A: 164%

Q: C[C@@H]1CCCN1Cc1sc(Nc2cc(N3CCN(CCC(=O)O)CC3)ncn2)nc1-c1cc(Cl)cc(C(F)(F)F)c1 [Example 92] was tested. Which response vs control in vivo at 3 mg/kg did it give?
A: 105%

Q: How did the response vs control in vivo at 3 mg/kg turn out when COc1c(F)cc(-c2nc(Nc3cc(N4CCN(CCC(=O)O)CC4)ncn3)sc2CN2CCC[C@H]2C)cc1C(F)(F)F [Example 94] was run?
A: 114%

Q: CCN(CC)Cc1sc(Nc2nc(C)nc(N3CCN(CCC(=O)O)CC3)c2F)nc1-c1cc(F)cc(C(F)(F)F)c1 [Example 97] was tested. Which response vs control in vivo at 3 mg/kg did it give?
A: 143%

Q: How did the response vs control in vivo at 3 mg/kg turn out when Cc1nc(Nc2nc(-c3cc(F)cc(C(F)(F)F)c3)c(CN(C)C(C)C)s2)c(F)c(N2CCN(CCC(=O)O)CC2)n1 [Example 98] was run?
A: 139%

Q: How did the response vs control in vivo at 3 mg/kg turn out when Cc1nc(Nc2nc(-c3cc(F)cc(C(F)(F)F)c3)c(CN3[C@H](C)CC[C@H]3C)s2)cc(N2CCN(CCC(=O)O)CC2)n1 [Example 99] was run?
A: 121%

Q: Which response vs control in vivo at 3 mg/kg does the source give for C[C@@H]1CC[C@@H](C)N1Cc1sc(Nc2nccc(N3CCN(CCC(=O)O)CC3)c2F)nc1-c1cc(F)cc(C(F)(F)F)c1 [Example 100] here?
A: 145%
